Laboratory results: US20260166122A1, “USE OF MICROPEPTIDE MIAC” (NANJING ANJI BIOTECHNOLOGY CO., LTD, priority 2023, published 2026)
Like-named read-outs stand apart in the source and are kept apart here. Marks after values point to notes of the source that are not given here. Ends that are not written are not given here.

What was measured:
[1] = test system: human non-small cell lung cancer cells NCI-H1650; type: cell-based; settings: 72 h
[2] = test system: hepatocellular carcinoma Hep3B cells; assay: transwell migration inhibition, Hep3B; type: cell-based, human; settings: 48 h
Description: (§1) Human prostate cancer, cervical cancer, osteosarcoma, ovarian cancer, melanoma, and hepatocellular carcinoma cells were inoculated into transwell chambers, with 100 μL per well; for an administration group, 100 μL of a micropeptide MIAC was added to each of the chambers at a different dose; and no medicament was added to a blank group. Then, 0.6 mL of a complete medium comprising 10% FBS was added to transwell lower chambers to stimulate cell migration, followed by incubation at 37° C. with 5% CO2 for 48 h. The culture medium in the wells was discarded, and the cells were fixed with methanol at room temperature for 30 min, stained with 0.1% crystal violet at room temperature for 10 min, and rinsed thoroughly with clear water; the unmigrated cells in the upper layer were wiped off with a cotton swab; and the migrated cells were observed under a microscope, and four visual fields were selected for photography and counting. The migration inhibition rate (MI) was calculated using the following formula: […]
(§2) where Ntest represents the number of migrated cells in the administration group, and Ncontrol represents the number of migrated cells in the blank control group.

[3] = test system: malignant melanoma A375 cells; assay: transwell migration inhibition, A375; type: cell-based, human; settings: 48 h
Description: as §1, §2

[4] = test system: human non-small cell lung cancer cells NCI-H1299; type: cell-based; settings: 72 h
[5] = test system: ovarian cancer SKOV3 cells; assay: transwell migration inhibition, SKOV3; type: cell-based, human; settings: 48 h
Description: as §1, §2

[6] = test system: human breast cancer cells MCF-7; type: cell-based; settings: 72 h
[7] = test system: prostate cancer Du145 cells; assay: transwell migration inhibition, Du145; type: cell-based, human; settings: 48 h
Description: as §1, §2

osteosarcoma MG-63 cells = assay: transwell migration inhibition, MG-63; type: cell-based, human; settings: 48 h
Description: as §1, §2

[8] = test system: human bladder transitional cell carcinoma cells T24; type: cell-based; settings: 72 h
Description: (§3) Human pancreatic cancer, hepatocellular carcinoma, colorectal cancer, ovarian cancer, cervical cancer, bladder cancer, melanoma, glioblastoma, neuroblastoma, glioma, osteosarcoma, myeloma, lymphoma, hematologic malignancies, and cholangiocarcinoma cells were cultured in an incubator at 37° C. with 5% CO2 until the density reached 90%, then digested and collected with trypsin, resuspended in a culture medium, and counted under a microscope; the cell concentration was adjusted to about 1.0×10^5 cells/mL; and the cell suspension was inoculated into a 96-well plate, with 100 μL per well, and incubated overnight in an incubator at 37° C. with 5% CO2. After the cells were completely attached to the wall, 100 μL of micropeptides MIAC with concentrations of 50 μM, 100 μM and 200 μM were added to form an administration group; and a culture medium without any medicament was used as a negative control group. After continuing incubation for 72 h, 100 μL of CCK8 was added to each well of the 96-well plate for dissolving. The absorbance OD was measured at a detection wavelength of 450 nm with a microplate reader, and the proliferation inhibition (PI) was calculated using the formula of PI (%)=1-administration group/negative control group. The experiment was repeated 3 times independently, the results were expressed as Mean±SD, and a statistical T test was performed, where *P<0.05 indicated a significant difference and **P<0.01 indicated an extremely significant difference.

[9] = test system: human cervical cancer cells SIHA; type: cell-based; settings: 72 h
Description: as §3

[10] = test system: human hepatocellular carcinoma cells HCCLM3; type: cell-based; settings: 72 h
Description: as §3

[11] = test system: human monocytic leukemia cells Thp-1; type: cell-based; settings: 72 h
Description: as §3

[12] = test system: human diffuse large B-cell lymphoma cells U2932; type: cell-based; settings: 72 h
Description: as §3

[13] = test system: cervical cancer Hela cells; assay: transwell migration inhibition, Hela; type: cell-based, human; settings: 48 h
Description: as §1, §2

[14] = test system: human esophageal carcinoma cells Eca-109; type: cell-based; settings: 72 h

## MERAGVPGFSPRRSSVEAKMQSTSCSVRKSSTVTAWPAVVLLLSWGQRRGG [MIAC, micropeptide inhibiting actin cytoskeleton]
[1]; NCI-H1650, 50 μM
  OD: 1.127 ± 0.022
[1]; NCI-H1650, 100 μM
  OD: 0.955 ± 0.031
[1]; NCI-H1650, 200 μM
  OD: 0.779 ± 0.057
[2]; 12.5 μmol/L
  Inhibition rate (%): 66.54%
  Number of migrated cells: 110.8 ± 29.3
[2]; 25 μmol/L
  Inhibition rate (%): 65.33%
  Number of migrated cells: 114.8 ± 27.1
[2]; 50 μmol/L
  Inhibition rate (%): 64.95%
  Number of migrated cells: 116.0 ± 26.1
[3]; A375, 12.5 μmol/L
  Inhibition rate (%): 46.18%
  Number of migrated cells: 139.3 ± 28.5
[3]; A375, 25 μmol/L
  Inhibition rate (%): 36.52%
  Number of migrated cells: 164.3 ± 40.1
[3]; A375, 50 μmol/L
  Inhibition rate (%): 48.70%
  Number of migrated cells: 132.8 ± 35.1
[4]; NCI-H1299, 50 μM
  OD: 1.090 ± 0.022
[4]; NCI-H1299, 100 μM
  OD: 0.754 ± 0.06
[4]; NCI-H1299, 200 μM
  OD: 0.467 ± 0.012
[5]; SKOV3, 12.5 μmol/L
  Inhibition rate (%): 17.17%
  Number of migrated cells: 907.3 ± 46.5
[5]; SKOV3, 25 μmol/L
  Inhibition rate (%): 52.28%
  Number of migrated cells: 523.8 ± 35.3
[5]; SKOV3, 50 μmol/L
  Inhibition rate (%): 62.04%
  Number of migrated cells: 415.8 ± 21.7
[6]; MCF-7, 50 μM
  OD: 1.281 ± 0.040
[6]; MCF-7, 100 μM
  OD: 0.973 ± 0.027
[6]; MCF-7, 200 μM
  OD: 0.814 ± 0.047
[7]; Du145, 3.125 μmol/L
  Inhibition rate (%): 39.23%
  Number of migrated cells: 349.3 ± 98.5
[7]; Du145, 6.25 μmol/L
  Inhibition rate (%): 69.77%
  Number of migrated cells: 173.8 ± 48.8
[7]; Du145, 12.5 μmol/L
  Inhibition rate (%): 82.51%
  Number of migrated cells: 100.5 ± 11.8
[7]; Du145, 25 μmol/L
  Inhibition rate (%): 91.87%
  Number of migrated cells: 46.8 ± 8.5
[7]; Du145, 50 μmol/L
  Inhibition rate (%): 94.56%
  Number of migrated cells: 31.3 ± 8.4
Osteosarcoma MG-63 cells; MG-63, 3.125 μmol/L
  Inhibition rate (%): 64.05%
  Number of migrated cells: 129.5 ± 19.9
Osteosarcoma MG-63 cells; MG-63, 6.25 μmol/L
  Inhibition rate (%): 83.21%
  Number of migrated cells: 60.5 ± 26.7
Osteosarcoma MG-63 cells; MG-63, 12.5 μmol/L
  Inhibition rate (%): 90.98%
  Number of migrated cells: 32.5 ± 6.0
Osteosarcoma MG-63 cells; MG-63, 25 μmol/L
  Inhibition rate (%): 93.13%
  Number of migrated cells: 24.8 ± 9.6
[8]; T24, 50 μM
  OD: 1.125 ± 0.010
[8]; T24, 100 μM
  OD: 0.730 ± 0.085**
[8]; T24, 200 μM
  OD: 0.364 ± 0.043**
[9]; 50 μM
  OD: 0.844 ± 0.099**
[9]; 100 μM
  OD: 0.755 ± 0.103**
[9]; 200 μM
  OD: 0.261 ± 0.052**
[10]; HCCLM3, 50 μM
  OD: 1.420 ± 0.054
[10]; HCCLM3, 100 μM
  OD: 0.981 ± 0.019**
[10]; HCCLM3, 200 μM
  OD: 0.706 ± 0.041**
[11]; Thp-1, 50 μM
  OD: 1.265 ± 0.059
[11]; Thp-1, 100 μM
  OD: 0.841 ± 0.058**
[11]; Thp-1, 200 μM
  OD: 0.681 ± 0.045**
[12]; U2932, 50 μM
  OD: 0.426 ± 0.019**
[12]; U2932, 100 μM
  OD: 0.275 ± 0.038**
[12]; U2932, 200 μM
  OD: 0.167 ± 0.025**
[13]; 6.25 μmol/L
  Inhibition rate (%): 12.76%
  Number of migrated cells: 475.0 ± 53.3
[13]; 12.5 μmol/L
  Inhibition rate (%): 39.23%
  Number of migrated cells: 296.8 ± 45.0
[13]; 25 μmol/L
  Inhibition rate (%): 33.83%
  Number of migrated cells: 360.3 ± 119.4
[13]; 50 μmol/L
  Inhibition rate (%): 61.30%
  Number of migrated cells: 210.5 ± 66.6
[14]; Eca-109, 50 μM
  OD: 1.072 ± 0.037
[14]; Eca-109, 100 μM
  OD: 0.656 ± 0.045
[14]; Eca-109, 200 μM
  OD: 0.394 ± 0.039
